Experimental data published in patent publication US8058243B2, “Method for treating a brain cancer with ifenprodil” (HSC Research and Development Limited Partnership, priority 2006, dated 2011).
Structures can show the parent of a compound that is named as a salt. Where two headings read alike, the source gives them in different places.

Tested on: murine neural precursor cells (neurosphere cultures)
Experiment: HTS of LOPAC library against secondary neurosphere cultures, MTT proliferation assay at 3 μM, day 7 (z score, P value)
Assay type: cell-based, mouse
[1] = LOPAC library screen, 3 μM, MTT, secondary neurosphere cultures, day 7
[2] = LOPAC primary screen, neurosphere MTT proliferation, 3 μM, day 7
[3] = yes/no: significantly inhibited neurosphere proliferation (P<0.01) in the primary screen
[4] = LOPAC library screen, 3 μM, MTT, neurosphere cultures
[5] = yes/no: significantly inhibited neurosphere proliferation (P<0.01) in primary screen
[6] = yes = significantly inhibited neurosphere proliferation (P<0.01) in the primary screen
[7] = LOPAC library screen at 3 μM, secondary neurosphere cultures, MTT
[8] = LOPAC library screen at 3 μM, MTT, secondary neurosphere cultures, screened in singlets
[9] = yes/no: significantly inhibited neurosphere proliferation in the primary screen
[10] = yes/no: significantly inhibited neurosphere proliferation in primary screen
[11] = primary LOPAC screen, 3 μM, MTT, neurosphere proliferation

CN1C[C@H](CNC(=O)OCc2ccccc2)C[C@@H]2c3cccc4c3c(cn4C)C[C@H]21 [Metergoline (39), Metergoline, reference compound]
Z Score [1]: −4.342
Z score [2]: −4.342
Activity [3]: yes

CN(C)CCN(Cc1cccs1)c1ccccn1 [Methapyrilene hydrochloride]
Z Score [4]: 0.6276
Z score [2]: 0.628

CSc1ccc2c(c1)C(N1CCN(C)CC1)Cc1ccccc1S2 (stereo not drawn) [Methiothepin (38), Methiothepin, reference compound]
Z Score (168 h, 3 µM): 1.868
Z score (168 h, 3 µM): 1.868
Activity [3]: no

COc1ccccc1CNCCCCCCNCCCCCCCCNCCCCCCNCc1ccccc1OC [Methoctramine (31), Methoctramine, reference compound]
Z Score (168 h, 3 µM): −7.012
Z score (168 h, 3 µM): −7.012
Activity [3]: yes

CN(Cc1cnc2nc(N)nc(N)c2n1)c1ccc(C(=O)N[C@@H](CCC(=O)O)C(=O)O)cc1 [Methotrexate]
Z Score [1]: −10.2
Z score [2]: −10.203
Activity [3]: yes

COc1ccc(OC)c(C(O)C(C)N)c1 (stereo not drawn) [Methoxamine hydrochloride]
Z Score [1]: −3.255
Z score [2]: −3.255
Activity [3]: yes

CCc1c(C(=O)OC)ncc2[nH]c3cc(OC)c(OC)cc3c12 [Methyl 6,7-dimethoxy-4-ethyl-beta-carboline-3-carboxylate]
Z Score: −1.326
Z score [2]: −1.326
Activity [5]: no

COC(=O)c1cc2c(cn1)[nH]c1ccccc12 [Methyl beta-carboline-3-carboxylate]
Z Score: 0.06023
Z score [2]: 0.060
Activity [5]: no

CNC(=O)OCC[N+](C)(C)C.[Cl-] [Methylcarbamylcholine chloride]
Z Score: 1.913
Z score [2]: 1.913
Activity [6]: no

CC[C@@H](CO)NC(=O)[C@@H]1C=C2c3cccc4[nH]cc(c34)C[C@H]2N(C)C1 [Methylergonovine maleate]
Z Score: −0.7846
Z score [2]: −0.785
Activity [6]: no

CC[C@@H](CO)NC(=O)[C@@H]1C=C2c3cccc4c3c(cn4C)C[C@H]2N(C)C1 [Methysergide maleate]
Z Score: −0.01983
Z score [2]: −0.020
Activity [6]: no

CCN(CC)CCNC(=O)c1cc(Cl)c(N)cc1OC [Metoclopramide hydrochloride]
Z Score (168 h, 3 µM): −1.992
Z score (168 h, 3 µM): −1.992
Activity [3]: no

Cc1ccccc1N1C(=O)c2cc(S(N)(=O)=O)c(Cl)cc2NC1C (stereo not drawn) [Metolazone]
Z Score [1]: −8.113
Z score [2]: −8.113
Activity [6]: yes

Cc1ccccc1/C=C/C1=NCCN1 [Metrazoline oxalate]
Z Score (168 h, 3 µM): 0.1073
Z score (168 h, 3 µM): 0.107
Activity [6]: no

Cc1ccccc1CNc1ncnc2c1ncn2[C@@H]1O[C@H](CO)[C@@H](O)[C@H]1O [Metrifudil]
Z Score [7]: −0.2123
Z score [2]: −0.212
Activity [6]: no

CC[C@H](C)C(=O)O[C@H]1CCC=C2C=C[C@H](C)[C@H](CC[C@@H]3C[C@@H](O)CC(=O)O3)[C@H]21 [Mevastatin]
Z Score [1]: −6.278
Z score [2]: −6.278
Activity [6]: yes

Cc1cccc(C)c1OCC(C)N.Cl (stereo not drawn) [Mexiletene hydrochloride]
Z Score: −1.259
Z score [2]: −1.259
Activity [6]: no

CN1CCN2c3ccccc3Cc3ccccc3C2C1 (stereo not drawn) [Mianserin hydrochloride]
Activity: no
Z Score [4]: 0.9746
Z score [2]: 0.975

COCC(=O)O[C@]1(CCN(C)CCCc2nc3ccccc3[nH]2)CCc2cc(F)ccc2[C@@H]1C(C)C [Mibefradil dihydrochloride]
Z Score [4]: −0.02693
Z score [2]: −0.027
Activity [6]: no

CC#C[C@]1(O)CC[C@H]2[C@@H]3CCC4=CC(=O)CCC4=C3[C@@H](c3ccc(N(C)C)cc3)C[C@@]21C [Mifepristone]
Z Score (168 h, 3 µM): −1.97
Z score (168 h, 3 µM): −1.970
Activity [6]: no

Cc1[nH]c(=O)c(C#N)cc1-c1ccncc1 [Milrinone]
Z Score [4]: 0.05506
Z score [2]: 0.055
Activity [6]: no

CN(C)c1ccc(O)c2c1C[C@H]1C[C@H]3[C@H](N(C)C)C(O)=C(C(N)=O)C(=O)[C@@]3(O)C(O)=C1C2=O [Minocycline hydrochloride]
Z Score [4]: 0.4419
Z score [2]: 0.442

O=C1c2c(O)ccc(O)c2C(=O)c2c(NCCNCCO)ccc(NCCNCCO)c21 [Mitoxantrone]
Z Score [1]: −10.21
Z score [2]: −10.205
Activity [6]: yes

NC(=O)c1ncn([C@@H]2O[C@H](CO)[C@@H](O)[C@H]2O)c1O [Mizorbine]
Z score [2]: 1.642
Activity [6]: no

NC(=O)c1ncn([C@@H]2O[C@H](CO)[C@@H](O)[C@H]2O)c1O [Mizoribine]
Z Score [8]: 1.642

CCOC(=O)[N-]c1cn(N2CCOCC2)n[o+]1 [Molsidomine]
Z Score [8]: 1.567
Z score [2]: 1.567
Activity [6]: no

CCOC(=O)C1=C(C)NC(=S)NC1c1cccc(O)c1 (stereo not drawn) [Monastrol]
Z Score (168 h, 3 µM): −1.162
Z score (168 h, 3 µM): −1.162

O=c1c(O)c(-c2ccc(O)cc2O)oc2cc(O)cc(O)c12 [Morin]
Z Score (168 h, 3 µM): −2.216
Z score (168 h, 3 µM): −2.216
Activity [6]: no

CC(=O)Oc1cc(C(C)C)c(OCCN(C)C)cc1C [Moxisylyte hydrochloride]
Z Score [7]: −1.018
Z score [2]: −1.018
Activity [6]: no

COc1nc(C)nc(Cl)c1N=C1NCCN1 [Moxonidine hydrochloride]
Z Score [4]: 0.2171
Z score [2]: 0.217
Activity [6]: no

NCc1cc(=O)[nH]o1 [Muscimol hydrobromide]
Z Score: 0.1863
Z score [2]: 0.186
Activity [5]: no

O=c1c(O)c(-c2cc(O)c(O)c(O)c2)oc2cc(O)cc(O)c12 [Myricetin]
Z Score: −0.9113
Z score [2]: −0.911
Activity [6]: no

Nc1ccc(CCNc2ncnc3c2ncn3[C@@H]2O[C@H](CO)[C@@H](O)[C@H]2O)cc1 [N6-2-(4-Aminophenyl)ethyladenosine]
Z Score (168 h, 3 µM): −1.323
Z score (168 h, 3 µM): −1.323
Activity [9]: no

OC[C@H]1O[C@@H](n2cnc3c(NCCc4ccccc4)ncnc32)[C@H](O)[C@@H]1O [N6-2-Phenylethyladenosine]
Z Score [4]: 0.5312
Z score [2]: 0.531
Activity [10]: no

CCNC(=O)[C@H]1O[C@@H](n2cnc3c(NCc4ccccc4)ncnc32)[C@H](O)[C@@H]1O [N6-Benzyl-5′-N-ethylcarboxamidoadenosine]
Z Score [7]: −0.7976
Z score (LOPAC screen, neurosphere MTT proliferation, 3 μM, day 7): −0.798
Activity [5]: no

OC[C@H]1O[C@@H](n2cnc3c(NC4CCCCC4)ncnc32)[C@H](O)[C@@H]1O [N6-Cyclohexyladenosine]
Z Score [1]: −2.883
Z score [2]: −2.883
Activity [3]: yes

Cn1cnc2c(NC3CCCC3)ncnc21 [N6-Cyclopentyl-9-methyladenine]
Z Score [1]: −2.112
Z score [2]: −2.112
Activity [10]: no

OC[C@H]1O[C@@H](n2cnc3c(NC4CCCC4)ncnc32)[C@H](O)[C@@H]1O [N6-Cyclopentyladenosine]
Z Score (168 h, 3 µM): −0.7839
Z score (168 h, 3 µM): −0.784
Activity [5]: no

CNc1ncnc2c1ncn2[C@@H]1O[C@H](CO)[C@@H](O)[C@H]1O [N6-Methyladenosine]
Z Score (168 h, 3 µM): 0.7424
Z score (168 h, 3 µM): 0.742
Activity [6]: no

OC[C@H]1O[C@@H](n2cnc3c(Nc4ccccc4)ncnc32)[C@H](O)[C@@H]1O [N6-Phenyladenosine]
Z Score: 0.7283
Z score: 0.728
Activity [10]: no

CN(C)C(=O)N=NC(=O)N(C)C [N,N,N′,N′-Tetramethylazodicarboxamide]
Z Score (168 h, 3 µM): −0.6393
Z score (168 h, 3 µM): −0.639
Activity [5]: no

CCCCCCN(CCCCCC)C(=O)Cc1c(-c2ccc(F)cc2)[nH]c2ccccc12 [N,N-Dihexyl-2-(4-fluorophenyl)indole-3-acetamide]
Z Score (168 h, 3 µM): 1.916
Z score (168 h, 3 µM): 1.916
Activity [5]: no

COc1cccc(C(=O)NCCN2CCN(c3ccc(Cl)cc3)CC2)c1 [N-(2-[4-(4-Chlorophenyl)piperazin-1-yl]ethyl)-3-methoxybenzamide]
Z Score [4]: 0.3828
Z score [2]: 0.383
Activity [3]: no

NCC(=O)NCCC(c1ccccc1)c1ccccc1 [N-(3,3-Diphenylpropyl)glycinamide]
Z Score [1]: −1.243
Z score [2]: −1.243
Activity [5]: no

Nc1ccc(N2C(=O)c3ccccc3C2=O)c(Cl)c1 [N-(4-Amino-2-chlorophenyl)phthalimide]
Z Score [7]: −0.6021
Z score [11]: −0.602
Activity [9]: no

Cl.NCCCCNS(=O)(=O)c1ccc2c(Cl)cccc2c1 [N-(4-Aminobutyl)-5-chloro-2-naphthalenesulfonamide hydrochloride]
Z Score (168 h, 3 µM): −0.9229

NCCCCNS(=O)(=O)c1ccc2c(Cl)cccc2c1 [N-(4-Aminobutyl)-5-chloro-2-naphthalenesulfonamide]
Z score (168 h, 3 µM): −0.923
Activity [10]: no

CC(=O)NCCc1c[nH]c2ccc(O)cc12 [N-Acetyl-5-hydroxytryptamine]
Z Score [7]: −1.06
Z score [11]: −1.060
Activity [9]: no

CC(=O)N[C@@H](CS)C(=O)O [N-Acetyl-L-Cysteine]
Z Score [1]: −1.621
Z score [11]: −1.621
Activity [9]: no

CC(=O)NCCc1ccc(O)c(O)c1.O [N-Acetyldopamine monohydrate]
Z Score: 0.4667
Z score [11]: 0.467
Activity [9]: no
